Test results reported in patent publication US6265445A, “Antiarrhythmic compounds” (priority 1997, dated 2001).
Where a name gives a salt, the structure may show the parent alone. Read-outs that look alike come from different tables or passages of the source.

Experiments:
[1] = test system: right ventricular papillary muscle of dogs; test: Intracellular microelectrode technique: action potential parameters, ventricular papillary muscle; design: species or system mongrel dogs; details: for Trecovery (recovery time constant of Vmax): Gy: kinetics of rapid restoration; for effect on duration of the action potential (in words) / effect on Vmax (in words): concentrations of Table 2; for effect on Vmax (in words): rapid recovery kinetics
Description: The method used is essentially in agreement with the method of Papp et al. [J. Cardiovascular Pharmacol. Ther. 1, 287-296 (1996)].
Right ventricular papillary muscle and Purkinje's fibres were prepared from the hearts of mongrel dogs (weighing 5 to 10 kg each). The preparations were placed into an organ bath (37° C.) containing modified Tyrode's nutrient medium. The preparations were excited by a basal frequency of 1 Hz. During the experiments, the frequency of stimulation was varied under broad limits by a computer-guided stimulator. The intracellular action potentials were registered by using glass capillary microelectrodes filled with 3 N potassium chloride solution (standard intracellular microelectrode techniques). The resting potential (RP), the amplitude of the action potential (APA) as well as the duration of the action potential (APD) were measured by using an IBM 386 compatible computer by means of an own-developed software. The compounds under test were directly added into the organ bath after dilution of the stock solutions according to the final concentrations desired. The effects of the compounds were observed after an incubation time of 30 to 40 minutes.

[2] = test system: isolated right ventricular trabecule of dog heart; test: Extracellular electrophysiological measurements: impulse conduction time and effective refractory period; design: species or system mongrel dogs; details: for activation at 2 µM / activation at 10 µM: Canis lupus familiaris; for effect on effective refractory period (in words) / effect on impulse conduction (in words): concentrations of Table 1
Description: Right ventricular trabecules were prepared from the heart of mongrel dogs (weighing 5 to 10 kg each). The surviving heart pieces were placed into an organ bath (37° C.) containing modified Tyrode's nutrient medium and excited by point stimulation with a basal frequency of 1 Hz. Extracellular bipolar platinum electrodes were placed on the surface of the preparations, by means of which the propagation of the superficial potentials were registered; thus, the determination of the time of impulse conduction or the rate of impulse conduction, respectively, and the effective refractory period (ERP) became possible. During our experiments,the frequency of stimulation was temporarily varied from 0.5 Hz up to 3 Hz. The tested compounds were directly added to the organ bath after dilution of the stock solution according to the desired final concentration.

[3] = 1 Hz, read-out: Prolongation (%) of ERP
[4] = 1 Hz, read-out: Prolongation (%) of impulse conduction time
[5] = 3 Hz, read-out: Prolongation (%) of ERP
[6] = 3 Hz, read-out: Prolongation (%) of impulse conduction time

Row | SMILES | effect on duration of the action potential (in words) [1] | effect on Vmax (in words) [1] | effect on effective refractory period (in words) [2] | effect on impulse conduction (in words) [2] | APA (amplitude of the action potential) ([1]; 5 μM) [mV] | APD50 (time of 50% repolarization) ([1]; 5 μM) [ms] | APD90 (time of 90% repolarization) ([1]; 5 μM) [ms] | RP (resting potential) ([1]; 5 μM) [mV] | Recovery Ampl ([1]; 5 μM) [V/s] | Recovery Ampl/Plateau ([1]; 5 μM) | Recovery Plateau ([1]; 5 μM) [V/s] | Vmax (maximum rate of depolarization) ([1]; 5 μM) [V/s] | Trecovery (recovery time constant of Vmax) ([1]; 5 μM) [ms] | activation at 10 µM [2, 3] [%] | activation at 10 µM [2, 4] [%] | activation at 10 µM [2, 5] [%] | activation at 10 µM [2, 6] [%] | further results
1 | CN(CCOc1ccc(NS(C)(=O)=O)cc1)CCc1ccc(NS(C)(=O)=O)cc1 [Dofetilide, N-[4-[2-[N-methyl-N-[2-(4-methanesulfonamidophenoxy)ethyl]-amino]ethyl]phenyl]methanesulfonamide, reference compound] | – | – | – | – | – | – | – | – | – | – | – | – | – | – | – | – | – | APA (amplitude of the action potential) ([1]; 1 μM): 96 mV; APD50 (time of 50% repolarization) ([1]; 1 μM): 218 ms; APD90 (time of 90% repolarization) ([1]; 1 μM): 252 ms; RP (resting potential) ([1]; 1 μM): -76 mV; Vmax (maximum rate of depolarization) ([1]; 1 μM): 212 V/s
2 | Cc1cccc(C)c1OCC(C)N(C)CCc1ccc(N)cc1 (centres unmarked) [Example 9, N-[2-(2,6-Dimethylphenoxy)-1-methylethyl]-N-methyl-2-(4-aminophenyl)ethylamine] | simultaneous prolongation of duration of the action potential (APD) | mexiletine-like inhibition of Vmax | simultaneous prolongation of the effective refractory period (ERP) | significantly prolonged the time of impulse conduction in a frequency-dependent manner | – | – | – | – | – | – | – | – | – | – | – | – | – | APA (amplitude of the action potential) ([1]; 1 μM): 110 mV; APD50 (time of 50% repolarization) ([1]; 1 μM): 285 ms; APD90 (time of 90% repolarization) ([1]; 1 μM): 342 ms; RP (resting potential) ([1]; 1 μM): -91 mV; Recovery Ampl ([1]; 1 μM): 132.4 V/s; Recovery Ampl/Plateau ([1]; 1 μM): 0.61; Recovery Plateau ([1]; 1 μM): 216.5 V/s; Vmax (maximum rate of depolarization) ([1]; 1 μM): 200 V/s; Trecovery (recovery time constant of Vmax) ([1]; 1 μM): 307.4 ms; activation at 2 µM [2, 3]: 31.8%; activation at 2 µM [2, 4]: 38%; activation at 2 µM [2, 5]: 39.4%; activation at 2 µM [2, 6]: 51.3%
3 | Cc1ccccc1OCCN(C)CCc1ccc(NS(C)(=O)=O)cc1.Cl [Example 14, N-[4-[2-[N-Methyl-N-[2-(2-methylphenoxy)ethyl]amino]ethyl]-phenyl]methanesulfonamide hydrochloride] | simultaneous prolongation of duration of the action potential (APD) | mexiletine-like inhibition of Vmax | – | – | 114 | 214 | 257 | -90 | 58.7 | 0.25 | 231.8 | 232 | 111.4 | – | – | – | – | –
4 | Cc1cccc(C)c1OC[C@H](C)N(C)CCc1ccc(NS(C)(=O)=O)cc1 [Example 16, (S)-N-[4-[2-[N-Methyl-N-[2-(2,6-dimethylphenoxy)-1-methylethyl]amino]ethyl]pbenyl]methanesulfonamide hydrochloride] | simultaneous prolongation of duration of the action potential (APD) | mexiletine-like inhibition of Vmax | simultaneous prolongation of the effective refractory period (ERP) | significantly prolonged the time of impulse conduction in a frequency-dependent manner | 105 | 195 | 244 | -86 | 75.8 | 0.39 | 196.4 | 199 | 249.5 | 10.7 | 26.9 | 14.3 | 39.7 | difference between the effects of Example 15 and its enantiomers (in words) ([1]; 5 μM): No essential difference could be observed
5 | Cc1cccc(C)c1OC[C@@H](C)N(C)CCc1ccc(NS(C)(=O)=O)cc1.Cl [Example 17, (R)-N-[4-[2-[N-Methyl-N-[2-(2,6-dimethylphenoxy)-1-methylethyl]amino]ethyl]phenyl]methanesulfonamide hydrochloride] | simultaneous prolongation of duration of the action potential (APD) | mexiletine-like inhibition of Vmax | simultaneous prolongation of the effective refractory period (ERP) | significantly prolonged the time of impulse conduction in a frequency-dependent manner | 106 | 203 | 249 | -87 | 85.2 | 0.52 | 173.7 | 169 | 390.4 | 12.1 | 32.5 | 17.1 | 35.1 | difference between the effects of Example 15 and its enantiomers (in words) ([1]; 5 μM): No essential difference could be observed
6 | Cc1ccccc1OCC(C)N(C)CCc1ccc(NS(C)(=O)=O)cc1 (centres unmarked) [Example 18, N-[4-[2-[N-Methyl-N-[2-(2-methylphenoxy)-1-methylethyl]-amino]ethyl]phenyl]methanesulfonamide hydrochloride] | – | – | – | – | – | – | – | – | – | – | – | – | – | 9.9 | 18.5 | 14 | 21.7 | –
7 | Cc1ccc(C)c(OCC(C)N(C)CCc2ccc(NS(C)(=O)=O)cc2)c1 (centres unmarked) [Example 20, N-[4-[2-[N-Metbyl-N-[2-(2,5-dimethylphenoxy)-1-methylethyl]amino]ethyl]phenyl]methanesulfonamide hydrochloride] | – | – | – | – | – | – | – | – | – | – | – | – | – | 8.4 | 20.3 | 12.6 | 24.5 | –
8 | Cc1cccc(C)c1OCCCN(C)CCc1ccc(NS(C)(=O)=O)cc1 [Example 23, N-[4-[2-[N-Methyl-N-[3-(2,6-dimethylphenoxy)propyl]amino]-ethyl]phenyl]methanesulfonamide hydrochloride] | – | – | – | – | – | – | – | – | – | – | – | – | – | 10.8 | 25 | 14.9 | 25 | –
9 | Cc1cccc(C)c1OCCCCN(C)CCc1ccc(NS(C)(=O)=O)cc1.Cl [Example 24, N-[4-[2-[N-Methyl-N-[4-(2,6-dimethylphenoxy)butyl]amino]ethyl]phenyl]methanesulfonamide hydrochloride] | – | – | simultaneous prolongation of the effective refractory period (ERP) | significantly prolonged the time of impulse conduction in a frequency-dependent manner | – | – | – | – | – | – | – | – | – | 13.8 | 69 | 18.4 | 82.9 | –
10 | Cc1cccc(C)c1OCC(C)N(C)CCc1ccc(NC(=O)c2ccccc2)cc1 (centres unmarked) [Example 25, N-[4-[2-[N-Methyl-N-[2-(2,6-dimethylphenoxy)-1-methylethyl]amino]ethyl]phenyl]benzamide hydrochloride] | – | – | – | – | – | – | – | – | – | – | – | – | – | 11.7 | 18.8 | 17 | 18.8 | –
11 | CC(=O)Nc1ccc(CCN(C)C(C)COc2c(C)cccc2C)cc1 (centres unmarked) [Example 26, N-[4-[2-[N-Methyl-N-[2-(2,6-dimethylphenoxy)-1-methylethyl]amino]ethyl]phenyl]acetamide sesquihydrochloride monohydrate] | simultaneous prolongation of duration of the action potential (APD) | mexiletine-like inhibition of Vmax | – | – | 105 | 200 | 250 | -80 | 120.9 | 0.62 | 195.9 | 195 | 199 | – | – | – | – | –
12 | CNC(=S)Nc1ccc(CCN(C)C(C)COc2c(C)cccc2C)cc1 (centres unmarked) [Example 27, 1-Methyl-3-[4-[2-[N-methyl-N-[2-(2,6-dimethylphenoxy)-1-methylethyl]amino]ethyl]phenyl]thiourea sesquihydrochloride hemihydrate] | simultaneous prolongation of duration of the action potential (APD) | mexiletine-like inhibition of Vmax | – | – | 88 | 210 | 250 | -71 | 78 | 0.53 | 147.9 | 117 | 161.8 | – | – | – | – | –
